Laboratory results taken from article PMC8586704 (Frontiers in Chemistry, 2021).
Values after ≈ are worked out from the molar mass of the structure shown. Like-named read-outs stand apart in the source and are kept apart here. Starred links: 1 amine or outer side, 2 acyl side, 3 side chain; linkers in the order of their positions; H or OH if unused. Non-standard residues stand in square brackets, D forms with d. Residues, ends and D or L forms follow the SMILES beside them. Groups on a side chain read outwards from the residue. X11 = COC(=O)[C@H](Cc1c[nH]cn1)NC(=O)[C@@H](C)C[C@@H](C(=O)[*:2])N(C)[*:1]; X10 = CC[C@H](C)[C@H](NC(=O)[C@@H](C)C[C@@H](C(=O)[*:2])N(C)[*:1])C(=O)OC; X4 = COC(=O)[C@H](CCSC)NC(=O)[C@@H](C)C[C@@H](C(=O)[*:2])N(C)[*:1]; Trp(1-(1,1-Me2-allyl)) = C=CC(C)(C)n1cc(C[C@H](N)C(=O)O)c2ccccc21; NMeGlu(4S-Me) = C[C@@H](C[C@@H](C(=O)[*:2])N(C)[*:1])C(=O)[*:3]; Tyr(3-NO2) = N[C@@H](Cc1ccc(O)c([N+](=O)[O-])c1)C(=O)O; Gly(E-crotyl) = C/C=C/C[C@H](N)C(=O)O; NMeL = CN[C@@H](CC(C)C)C(=O)O

Experiments:
M. tuberculosis H37Rv = assay: Antitubercular activity assay, broth dilution, auto-luminescent strain; assay type: cell-based, Mycobacterium tuberculosis
MCF-7 = assay: cells; assay type: cell-based; conditions: Homo sapiens, MCF7; breast adenocarcinoma cell line
HeLa = assay: cells; assay type: cell-based; conditions: Homo sapiens, cervical carcinoma cell line
HepG2 = assay: cells; assay type: cell-based; conditions: Homo sapiens, hepatocellular carcinoma cell line
A549 = assay: Cytotoxicity assay (CCK-8); assay type: cell-based; conditions: Homo sapiens, lung cancer cell line
HCT116 = assay: cells; assay type: cell-based; conditions: Homo sapiens, HCT-116; colon cancer cell line
L02 = assay: cells; assay type: cell-based; conditions: normal human hepatic cell line
Huvec-12 = assay: Cytotoxicity assay (CCK-8); assay type: cell-based; conditions: normal human umbilical vein endothelial cell line
[1] = Mycobacterium tuberculosis, H37RV, Day 3rd, read-out: MICs against H37Rv, Day 3rd
[2] = Mycobacterium tuberculosis, H37RV, Day 7th, read-out: MICs against H37Rv, Day 7th
[3] = Mycobacterium tuberculosis, H37RV, Day 14th, read-out: MICs against H37Rv, Day 14th

SMILES | MIC (M. tuberculosis H37Rv; [1]) [µM] | MIC (M. tuberculosis H37Rv; [2]) [µM] | MIC (M. tuberculosis H37Rv; [3]) [µM] | IC50 (MCF-7) [µM] | IC50 (HeLa) [µM] | IC50 (HepG2) [µM] | IC50 (A549) [µM] | IC50 (HCT116) [µM] | IC50 (L02) [µM] | IC50 (Huvec-12) [µM] | MIC (M. tuberculosis H37Rv; Day 3rd, read-out: MICs against H37Rv, Day 3rd) [µM] | MIC (M. tuberculosis H37Rv; Day 14th, read-out: MICs against H37Rv, Day 14th) [µM]
C=CC(C)(C)n1cc(C[C@@H]2NC(=O)[C@H](C/C=C/C)NC(=O)[C@H](CC(C)C)NC(=O)[C@H](C[C@H](C)C(=O)N[C@@H](CCSC)C(=O)OC)N(C)C(=O)[C@H](C)NC(=O)[C@H](Cc3ccc(O)c([N+](=O)[O-])c3)NC(=O)[C@H](CC(C)C)N(C)C2=O)c2ccccc21 [Compound 2, ilamycin NJL2] (cyclo(A[X4]L[Gly(E-crotyl)][Trp(1-(1,1-Me2-allyl))][NMeL][Tyr(3-NO2)])) | 6.7 (≈ 7.96 µg/mL) | 6.7 (≈ 7.96 µg/mL) | 3.4 (≈ 4.04 µg/mL) | > 50 | > 50 | > 50 | > 50 | > 50 | > 50 | > 50 | – | –
C=CC(C)(C)n1cc(C[C@@H]2NC(=O)[C@H](C/C=C/C)NC(=O)[C@H](CC(C)C)NC(=O)[C@H](C[C@H](C)C(=O)N[C@H](C(=O)OC)[C@@H](C)CC)N(C)C(=O)[C@H](C)NC(=O)[C@H](Cc3ccc(O)c([N+](=O)[O-])c3)NC(=O)[C@H](CC(C)C)N(C)C2=O)c2ccccc21 [Compound 3, ilamycin NJL3] (cyclo(A[X10]L[Gly(E-crotyl)][Trp(1-(1,1-Me2-allyl))][NMeL][Tyr(3-NO2)])) | 6.8 (≈ 7.95 µg/mL) | 6.8 (≈ 7.95 µg/mL) | 6.8 (≈ 7.95 µg/mL) | > 50 | 14.5 | > 50 | > 50 | > 50 | 12 | > 50 | – | –
C=CC(C)(C)n1cc(C[C@@H]2NC(=O)[C@H](C/C=C/C)NC(=O)[C@H](CC(C)C)NC(=O)[C@H](C[C@H](C)C(=O)N[C@@H](CCCNC(=N)N)C(=O)OC)N(C)C(=O)[C@H](C)NC(=O)[C@H](Cc3ccc(O)c([N+](=O)[O-])c3)NC(=O)[C@H](CC(C)C)N(C)C2=O)c2ccccc21 [Compound 4, ilamycin NJL4] (cyclo(A[NMeGlu(4S-Me)]([Arg-OMe])L[Gly(E-crotyl)][Trp(1-(1,1-Me2-allyl))][NMeL][Tyr(3-NO2)])) | 26.4 (≈ 32 µg/mL) | 26.4 (≈ 32 µg/mL) | 26.4 (≈ 32 µg/mL) | > 50 | 26 | > 50 | 23 | 30.6 | 25.9 | 35.2 | – | –
C=CC(C)(C)n1cc(C[C@@H]2NC(=O)[C@H](C/C=C/C)NC(=O)[C@H](CC(C)C)NC(=O)[C@H](C[C@H](C)C(=O)N[C@@H](Cc3c[nH]cn3)C(=O)OC)N(C)C(=O)[C@H](C)NC(=O)[C@H](Cc3ccc(O)c([N+](=O)[O-])c3)NC(=O)[C@H](CC(C)C)N(C)C2=O)c2ccccc21 [Compound 5, ilamycin NJL5] (cyclo(A[X11]L[Gly(E-crotyl)][Trp(1-(1,1-Me2-allyl))][NMeL][Tyr(3-NO2)])) | 26.8 (≈ 32 µg/mL) | 26.8 (≈ 32 µg/mL) | 26.8 (≈ 32 µg/mL) | > 50 | > 50 | > 50 | > 50 | > 50 | > 50 | > 50 | – | –
C=CC(C)(C)n1cc(C[C@@H]2NC(=O)[C@H](C/C=C/C)NC(=O)[C@H](CC(C)C)NC(=O)[C@H](C[C@H](C)C(=O)N[C@@H](Cc3c[nH]c4ccccc34)C(=O)OC)N(C)C(=O)[C@H](C)NC(=O)[C@H](Cc3ccc(O)c([N+](=O)[O-])c3)NC(=O)[C@H](CC(C)C)N(C)C2=O)c2ccccc21 [Compound 6, ilamycin NJL6] (cyclo(A[NMeGlu(4S-Me)]([Trp-OMe])L[Gly(E-crotyl)][Trp(1-(1,1-Me2-allyl))][NMeL][Tyr(3-NO2)])) | 1.6 to 3.5 (≈ 1.99 to 4.35 µg/mL) | 1.7 (≈ 2.11 µg/mL) | 1.6 to 1.7 (≈ 1.99 to 2.11 µg/mL) | > 50 | > 50 | > 50 | > 50 | > 50 | > 50 | > 50 | 1.7 (≈ 2.11 µg/mL) | 1.7 (≈ 2.11 µg/mL)
C=CC(C)(C)n1cc(C[C@@H]2NC(=O)[C@H](C/C=C/C)NC(=O)[C@H](CC(C)C)NC(=O)[C@H](C[C@H](C)C(=O)N[C@@H](Cc3ccccc3)C(=O)OC)N(C)C(=O)[C@H](C)NC(=O)[C@H](Cc3ccc(O)c([N+](=O)[O-])c3)NC(=O)[C@H](CC(C)C)N(C)C2=O)c2ccccc21 [Compound 7, ilamycin NJL7] (cyclo(A[NMeGlu(4S-Me)]([Phe-OMe])L[Gly(E-crotyl)][Trp(1-(1,1-Me2-allyl))][NMeL][Tyr(3-NO2)])) | 26.6 (≈ 32 µg/mL) | 13.3 (≈ 16 µg/mL) | 6.6 (≈ 7.94 µg/mL) | > 50 | > 50 | > 50 | > 50 | > 50 | > 50 | > 50 | – | –
